≈ marks a conversion by molar mass, not a printed value.
Columns and labels:
Format in all cases: cell-based
[1] = system: Staphylcoccus aureus (MRSA); experiment: MIC by agar dilution method using Muller-Hinton agar; conditions: Staphylococcus aureus; strain c: Staphylcoccus aureus (MRSA); read-out: Inhibitory Activity (MIC)
Source text: (§1) To this end, the compound of Example 2 and the currently used oxazolidinone class Linezolid were examined for minimal inhibitory concentration (hereinafter, referred to as “MIC”) against Gram-positive strains and resistant bacteria including methicillin-resistant Staphylococcus aureus (MRSA) and vancomycin resistant enterococci by an agar dilution method using Muller-Hinton agar.
(§2) As used herein, the term MIC is intended to refer to the lowest concentration of an antibiotic that will inhibit the growth of a microorganism. MIC values are expressed as μg/ml. Bacterial strains used for this assay included Haemophilus influenza, Coagulase negative staphylococi, Staphylcoccus aureus (MRSA), Enterococcus faecalis (VER), Enterococcus faecium (VR 1, VR 2), and Vancomycin resistant enterococci 1˜6.
(§3) After being incubated for 18 hours in a Muller-Hinton broth, the strains were transferred to fresh broth at a concentration of approximately 10^7 CFU/ml. Isolates were distributed with a multipoint inoculator (MIC-2000 Dynatech) at 10^4 CFU per spot onto agar plates containing the compound of the Examples or Comparative Examples.

[2] = system: Haemophilus influenza; experiment: as above; conditions: read-out: Inhibitory Activity (MIC); strain a: Haemophilus infuenz
Source text: as §1, §2, §3

[3] = system: Vancomycin resistant enterococci 1; experiment: as above; conditions: strain g: Vancomycin resistant enterococci 1; read-out: Inhibitory Activity (MIC)
Source text: as §1, §2, §3

[4] = system: Vancomycin resistant enterococci 2; experiment: as above; conditions: strain h: Vancomycin resistant enterococci 2; read-out: Inhibitory Activity (MIC)
Source text: as §1, §2, §3

[5] = system: Coagulase negative staphylococi; experiment: as above; conditions: read-out: Inhibitory Activity (MIC); strain b: Coagulase negative staphylococi
Source text: as §1, §2, §3

[6] = system: Vancomycin resistant enterococci 3; experiment: as above; conditions: strain i: Vancomycin resistant enterococci 3; read-out: Inhibitory Activity (MIC)
Source text: as §1, §2, §3

[7] = system: Enterococcus faecalis (VRE); experiment: as above; conditions: strain d: Enterococcus faecalis (VRE); read-out: Inhibitory Activity (MIC)
Source text: as §1, §2, §3

[8] = system: Enterococcus faecium (VR 2); experiment: as above; conditions: strain f: Enterococcus faecium (VR 2); read-out: Inhibitory Activity (MIC)
Source text: as §1, §2, §3

[9] = system: Enterococcus faecium (VR 1); experiment: as above; conditions: strain e: Enterococcus faecium (VR 1); read-out: Inhibitory Activity (MIC)
Source text: as §1, §2, §3

[10] = system: Vancomycin resistant enterococci 4; experiment: organism not typed; conditions: read-out: Inhibitory Activity (MIC)
Source text: as §1, §2, §3

[11] = system: Vancomycin resistant enterococci 6; experiment: organism not typed; conditions: read-out: Inhibitory Activity (MIC)
Source text: as §1, §2, §3

[12] = system: Vancomycin resistant enterococci 5; experiment: organism not typed; conditions: read-out: Inhibitory Activity (MIC)
Source text: as §1, §2, §3

[13] = system: Gram-positive strains and resistant bacteria including MRSA and vancomycin resistant enterococci; experiment: MIC by agar dilution, text summary over the strain panel; conditions: read-out: MIC against Haemophilus influenza, Coagulase negative staphylococci and vancomycin resistant enterococci (VRE)
Source text: as §1, §2, §3

Compound `CC(=O)NC[C@H]1CN(c2cc(F)c(N3CC(F)C4(CC4)C3)c(F)c2)C(=O)O1` (stereo partly drawn) [Example 2, (S)—N-{{3-[3,5-Difluoro-4-(7-fluoro-5-azaspiro[2,4]heptan-5-yl)phenyl]-2-oxo-5-oxazolidinyl}methyl}acetamide] has an MIC [1] of 1.56 µg/mL (≈ 4.08 µM), an MIC [2] of 0.781 µg/mL (≈ 2.04 µM) and an MIC [3] of 3.12 µg/mL (≈ 8.15 µM). It also gave an MIC [4] of 1.56 µg/mL (≈ 4.08 µM), an MIC [5] of 0.781 µg/mL (≈ 2.04 µM) and an MIC [6] of 3.12 µg/mL (≈ 8.15 µM). The MIC [7] was 1.56 µg/mL (≈ 4.08 µM), the MIC [8] was 1.56 µg/mL (≈ 4.08 µM) and the MIC [9] was 1.56 µg/mL (≈ 4.08 µM). The MIC [10] was 0.781 µg/mL (≈ 2.04 µM), the MIC [11] was 0.781 µg/mL (≈ 2.04 µM) and the MIC [12] was 0.781 µg/mL (≈ 2.04 µM).

With `CC(=O)NC[C@H]1CN(c2ccc(N3CCOCC3)c(F)c2)C(=O)O1` [Linezolid, reference compound] the MIC [2] was 3.12 µg/mL (≈ 9.26 µM), the MIC [5] was 3.12 µg/mL (≈ 9.26 µM) and the MIC [13] was 1.56 to 3.12 µg/mL (≈ 4.63 to 9.26 µM).
